Measurements reported in PubChem BioAssay (NCI).
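Interpolation was linear, between the two tested concentrations surrounding the appropriate level; five concentrations were tested over 48 hours in 96-well plates. GI50 is the concentration that inhibits growth by half. Definition used: TGI = concentration required for complete inhibition of growth.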

Experiments:
Assay in all cases: NCI anticancer screen, dose series, 48 h
DU-145 prostate = test system: DU-145 prostate
BT-549 breast = test system: BT-549 breast
UO-31 renal = test system: UO-31 renal
CCRF-CEM leukemia = test system: CCRF-CEM leukemia
HCT-116 colon = test system: HCT-116 colon
SN12C renal = test system: SN12C renal
HCC-2998 colon = test system: HCC-2998 colon
SNB-19 CNS = test system: SNB-19 CNS
SK-OV-3 ovarian = test system: SK-OV-3 ovarian
MALME-3M melanoma = test system: MALME-3M melanoma

## CC(C)(C)C(=O)c1c(C(F)(F)F)n([O-])c2cc(Cl)c(Cl)cc2[n+]1=O
DU-145 prostate
  GI50: 353 nM
  TGI: 803 nM
BT-549 breast
  GI50: 769 nM
  TGI: 2.11 µM
UO-31 renal
  GI50: 403 nM
  TGI: 805 nM
CCRF-CEM leukemia
  GI50: 619 nM
  TGI: 1.19 µM
HCT-116 colon
  GI50: 1580 nM
  TGI: 2930 nM
SN12C renal
  GI50: 778 nM
  TGI: 2090 nM
HCC-2998 colon
  GI50: 0.172 µM
  TGI: 0.465 µM
SNB-19 CNS
  GI50: 0.609 µM
  TGI: 1.28 µM
SK-OV-3 ovarian
  GI50: 0.815 µM
  TGI: 2.07 µM
MALME-3M melanoma
  GI50: 1340 nM
  TGI: 2.73 µM

## CN(C)CC1C(=O)O[C@H]2[C@H]1CC/C(COC(=O)NCc1ccc(Cn3c(=O)sn(CCCI)c3=O)cc1)=C\CC[C@@]1(C)O[C@@H]21 (stereo not given in full)
DU-145 prostate
  GI50: 1070 nM
  TGI: 2160 nM
BT-549 breast
  GI50: 1840 nM
  TGI: 7.93 µM
UO-31 renal
  GI50: 775 nM
  TGI: 1520 nM
CCRF-CEM leukemia
  GI50: 1460 nM
  TGI: 7.88 µM
HCT-116 colon
  GI50: 793 nM
  TGI: 1600 nM
SN12C renal
  GI50: 958 nM
  TGI: 2120 nM
HCC-2998 colon
  GI50: 7.56 µM
  TGI: 15.4 µM
SNB-19 CNS
  GI50: 7.26 µM
  TGI: 14.2 µM
SK-OV-3 ovarian
  GI50: 7.96 µM
  TGI: 14.8 µM
MALME-3M melanoma
  GI50: 836 nM
  TGI: 1.69 µM

## O=C(CSC(c1ccccc1)c1ccccc1)N/N=C/c1ccccc1Cl
DU-145 prostate
  GI50: 50600 nM
  TGI: > 100000 nM
BT-549 breast
  GI50: 2750 nM
  TGI: 17 µM
UO-31 renal
  GI50: 30900 nM
  TGI: > 100000 nM
CCRF-CEM leukemia
  GI50: 17400 nM
  TGI: 43.2 µM
HCT-116 colon
  GI50: 14000 nM
  TGI: > 54600 nM
SN12C renal
  GI50: 2660 nM
  TGI: 11800 nM
HCC-2998 colon
  GI50: 6.9 µM
  TGI: > 75 µM
SNB-19 CNS
  GI50: 43.9 µM
  TGI: > 100 µM
SK-OV-3 ovarian
  GI50: > 100 µM
  TGI: > 100 µM
MALME-3M melanoma
  GI50: 6280 nM
  TGI: 42.5 µM

## O=C(N=Nc1c(Cl)c(O)c2ccccc2c1O)C(=O)Nc1cccc(C(F)(F)F)c1
DU-145 prostate
  GI50: 2730 nM
  TGI: 5150 nM
BT-549 breast
  GI50: 3740 nM
  TGI: 12.5 µM
UO-31 renal
  GI50: 1530 nM
  TGI: 12200 nM
CCRF-CEM leukemia
  GI50: 2840 nM
  TGI: 8.77 µM
HCT-116 colon
  GI50: 1830 nM
  TGI: 3880 nM
SN12C renal
  GI50: 1770 nM
  TGI: 3790 nM
HCC-2998 colon
  GI50: 10.4 µM
  TGI: 22.9 µM
SNB-19 CNS
  GI50: 4.6 µM
  TGI: 17.6 µM
SK-OV-3 ovarian
  GI50: 12.9 µM
  TGI: 26.7 µM
MALME-3M melanoma
  GI50: 3120 nM
  TGI: 7.64 µM
